Results reported in ChEMBL document CHEMBL1152031, “Substituted N,N-diphenyl ureas as potent inhibitors of acyl-CoA:Cholesterol acyltransferase (ACAT)” (Bioorg Med Chem Lett, 1993).

Tests used:
[1] = tested on: Rattus norvegicus; test: Tested in vivo for the ability to lower the total plasma cholesterol (TC) in an chronic peanut oil/cholesterol/cholic Acid (APCC) model at the dose of 30 mg/kg; format: functional
[2] = target: O-acyltransferase (Oryctolagus cuniculus, UniProt G1SFD9); test: In vitro inhibition of intestinal Acyl coenzyme A:cholesterol acyltransferase in cholesterol-fed rabbits.
Chain of O-acyltransferase (G1SFD9 1-524): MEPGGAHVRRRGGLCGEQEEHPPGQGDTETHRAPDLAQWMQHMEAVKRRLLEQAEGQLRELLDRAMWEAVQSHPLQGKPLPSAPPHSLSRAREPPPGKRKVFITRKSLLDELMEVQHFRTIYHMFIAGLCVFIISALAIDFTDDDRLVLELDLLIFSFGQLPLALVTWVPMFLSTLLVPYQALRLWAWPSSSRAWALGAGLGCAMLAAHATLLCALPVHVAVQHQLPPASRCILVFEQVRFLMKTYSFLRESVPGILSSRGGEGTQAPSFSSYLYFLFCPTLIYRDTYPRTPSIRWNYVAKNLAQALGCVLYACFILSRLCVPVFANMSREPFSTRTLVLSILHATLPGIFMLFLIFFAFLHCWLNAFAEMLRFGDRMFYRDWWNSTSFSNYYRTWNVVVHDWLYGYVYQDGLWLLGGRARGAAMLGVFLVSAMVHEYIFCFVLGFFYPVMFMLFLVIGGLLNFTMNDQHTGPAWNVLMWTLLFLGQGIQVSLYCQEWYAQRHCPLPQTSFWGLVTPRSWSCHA

Row | Structure (SMILES) | IC50 [2] [nM] | Delta TC [1] [%]
1 | CCCCCCCCCCCCCCc1ccc(NC(=O)Nc2c(C(C)C)cccc2C(C)C)cc1 | 500 | -25
2 | CCc1ccc(NC(=O)Nc2c(C(C)C)cccc2C(C)C)cc1 | 100 | –
3 | CCCCCCCCCCc1ccc(NC(=O)Nc2c(C(C)C)cccc2C(C)C)cc1 | 13 | -25
4 | Cc1ccc(NC(=O)Nc2c(C(C)C)cccc2C(C)C)cc1 | 250 | –
5 | CCCCCc1ccc(NC(=O)Nc2c(C(C)C)cccc2C(C)C)cc1 | 32 | –
6 | CCCCCCCCCCCc1ccc(NC(=O)Nc2c(C(C)C)cccc2C(C)C)cc1 | 9 | -29
7 | CC(C)c1ccc(NC(=O)Nc2c(C(C)C)cccc2C(C)C)cc1 | 66 | –
8 | CCCCCCCCCc1ccc(NC(=O)Nc2c(C(C)C)cccc2C(C)C)cc1 | 9 | -8
9 | CCCCCCCN(Cc1ccc(CC(C)(C)C)cc1)C(=O)Nc1ccc(F)cc1F [CL-277082] | – | -54

More lines, in order of falling IC50 [2], values ahead:

Row | IC50 [2] [nM] | Structure (SMILES) | Delta TC [1] [%]
10 | 168 | CC(C)c1cccc(C(C)C)c1NC(=O)Nc1ccc(C(C)(C)C)cc1 | -10
11 | 38 | CCCc1ccc(NC(=O)Nc2c(C(C)C)cccc2C(C)C)cc1 | –
12 | 29 | CCCCc1ccc(NC(=O)Nc2c(C(C)C)cccc2C(C)C)cc1 | -12
13 | 26 | CCCCCCc1ccc(NC(=O)Nc2c(C(C)C)cccc2C(C)C)cc1 | -18
14 | 19 | CCCCCCCc1ccc(NC(=O)Nc2c(C(C)C)cccc2C(C)C)cc1 | -21
15 | 15 | CCCCCCCCCCCCc1ccc(NC(=O)Nc2c(C(C)C)cccc2C(C)C)cc1 | -47
16 | 11 | CCCCCCCCCCCCCc1ccc(NC(=O)Nc2c(C(C)C)cccc2C(C)C)cc1 | -70
17 | 11 | CCCCCCCCc1ccc(NC(=O)Nc2c(C(C)C)cccc2C(C)C)cc1 | -29
